Experimental data: the CheMixHub viscosity set
Several values for one entry are separate records, joined by “and”; a condition that tells them apart may be missing. Equal values may be shown once.

What was measured:
[1] = xn = mol fraction of the nth substance listed

CCC(C)O (stereo not given)
viscosity
Settings | 293.15 K | 298.15 K | 303 K | 303.15 K | 308.15 K | 318.15 K | 323.15 K
100 kPa | 4.036 mPa·s | – | – | – | – | – | 1.626 mPa·s
101 kPa | – | – | – | 2.742 mPa·s and 2.27 mPa·s and 2.741 mPa·s | 2 mPa·s and 2.179 mPa·s | 1.58 mPa·s and 1.566 mPa·s | 1.41 mPa·s
101.3 kPa | – | – | – | 3.177 mPa·s | 2.582 mPa·s | – | –
101.33 kPa | 3.647 mPa·s | 2.925 mPa·s and 2.857 mPa·s | 2.195 mPa·s | 2.417 mPa·s and 2.741 mPa·s | 2.034 mPa·s and 2.011 mPa·s | 1.62 mPa·s | –

OC1COCOC1 + OCC(O)CO
viscosity [mPa·s], [1], 101 kPa
Settings | x1 = 0.0998 | x1 = 0.2002 | x1 = 0.3 | x1 = 0.3996 | x1 = 0.5003 | x1 = 0.5984 | x1 = 0.7011 | x1 = 0.8002 | x1 = 0.9
298.15 K | 832.9 | 733.8 | 627.8 | 520 | 421.6 | 329.6 | 242.5 | 168.5 | 92.07
308.15 K | 378.7 | 330.3 | 278.4 | 227 | 181 | 134.8 | 99.8 | 67.79 | 40.63
318.15 K | 190 | 163.4 | 139 | 110.6 | 85.95 | 62.08 | 44.85 | 32.54 | 20.88

O=S1(=O)CCCC1 + OCCO
[1], 303.15 K, 101 kPa
Settings | viscosity [mPa·s]
x1 = 0.0503 | 11.92
x1 = 0.0993 | 10.75
x1 = 0.2006 | 8.926
x1 = 0.2984 | 7.669
x1 = 0.393 | 6.857
x1 = 0.4553 | 6.555
x1 = 0.5015 | 6.443
x1 = 0.5484 | 6.443
x1 = 0.6038 | 6.548
x1 = 0.7048 | 7.013
x1 = 0.8065 | 7.683
x1 = 0.9034 | 8.532
x1 = 0.9426 | 9.018

OC1COCOC1 + OCCO
viscosity [mPa·s], [1], 101 kPa
Settings | x1 = 0.1002 | x1 = 0.2002 | x1 = 0.3 | x1 = 0.4 | x1 = 0.5004 | x1 = 0.5997 | x1 = 0.7 | x1 = 0.8001 | x1 = 0.8999
298.15 K | 16.97 | 16.11 | 14.94 | 13.85 | 12.88 | 12.74 | 12.81 | 12.79 | 12.89
308.15 K | 11.6 | 10.98 | 10.23 | 9.473 | 8.583 | 8.457 | 8.572 | 8.812 | 8.878
318.15 K | 8.193 | 7.647 | 7.214 | 6.665 | 6.111 | 5.995 | 5.915 | 6.167 | 6.474

O=S1(=O)CCCC1 + OCCOCCO
[1], 303.15 K, 101 kPa
Settings | viscosity [mPa·s]
x1 = 0.0517 | 20.1
x1 = 0.0984 | 18.62
x1 = 0.206 | 15.85
x1 = 0.2958 | 13.99
x1 = 0.3988 | 12.28
x1 = 0.4469 | 11.69
x1 = 0.4997 | 11.11
x1 = 0.5346 | 10.81
x1 = 0.603 | 10.31
x1 = 0.7047 | 9.829
x1 = 0.7896 | 9.536
x1 = 0.8987 | 9.51
x1 = 0.9348 | 9.614

O=S1(=O)CCCC1 + OCCOCCOCCO
[1], 303.15 K, 101 kPa
Settings | viscosity [mPa·s]
x1 = 0.0435 | 27.75
x1 = 0.0985 | 25.88
x1 = 0.2083 | 22.54
x1 = 0.2999 | 20.02
x1 = 0.3966 | 17.63
x1 = 0.4473 | 16.49
x1 = 0.4985 | 15.45
x1 = 0.5498 | 14.47
x1 = 0.5855 | 13.85
x1 = 0.6913 | 12.24
x1 = 0.8065 | 10.9
x1 = 0.8984 | 10.18
x1 = 0.9458 | 10.08

Cc1ccc(O)cc1 + Oc1ccccc1
[1], 298.15 K, 101 kPa
Settings | viscosity [mPa·s]
x2 = 0.1598 | 13.27
x2 = 0.3191 | 12.18
x2 = 0.3851 | 11.75
x2 = 0.5218 | 10.99
x2 = 0.6385 | 10.42
x2 = 0.7587 | 9.835
x2 = 0.8783 | 9.463

O=S(=O)(Cl)Cl + [Cl-].[Cl-].[Cl-].[Cl-].[Sn+4]
[1], 298.15 K, 101 kPa
Settings | viscosity [mPa·s]
x1 = 0.268 | 0.7739
x1 = 0.563 | 0.7396
x1 = 0.795 | 0.7144

CCC(C)O (stereo not given) + c1ccccc1
[1], 303 K, 101.3 kPa
Settings | viscosity [mPa·s]
x2 = 0.1032 | 1.95
x2 = 0.2077 | 1.52
x2 = 0.3084 | 1.204
x2 = 0.4086 | 0.9692
x2 = 0.511 | 0.8012
x2 = 0.5989 | 0.6995
x2 = 0.7027 | 0.6211
x2 = 0.7981 | 0.5854
x2 = 0.8973 | 0.5709

Cc1ccc(O)cc1 + c1ccccc1
[1], 308.15 K, 101 kPa
Settings | viscosity [mPa·s]
x1 = 0.0751 | 0.6025
x1 = 0.1778 | 0.749
x1 = 0.292 | 0.9762
x1 = 0.4109 | 1.327
x1 = 0.532 | 1.87
x1 = 0.6653 | 2.706
x1 = 0.7851 | 4.175
x1 = 0.8374 | 4.963
x1 = 0.9459 | 7.462

Cc1cccc(C)c1 + c1ccccc1
viscosity [mPa·s], [1], 101 kPa
Settings | x1 = 0.0977 | x1 = 0.2098 | x1 = 0.2979 | x1 = 0.4028 | x1 = 0.5018 | x1 = 0.5981 | x1 = 0.7046 | x1 = 0.8007 | x1 = 0.898
303 K | 0.5478 | 0.5424 | 0.5393 | 0.5373 | 0.5342 | 0.5374 | 0.536 | 0.5395 | 0.5417
313 K | 0.4793 | 0.4781 | 0.4769 | 0.4767 | 0.4789 | 0.4796 | 0.4818 | 0.4843 | 0.4875
323 K | 0.4302 | 0.4308 | 0.4285 | 0.4291 | 0.4307 | 0.4342 | 0.4361 | 0.4397 | 0.443

O=S(=O)(Cl)Cl + c1ccccc1
[1], 298.15 K, 101 kPa
Settings | viscosity [mPa·s]
x1 = 0.176 | 0.6172
x1 = 0.43 | 0.6463
x1 = 0.699 | 0.6673
x1 = 0.734 | 0.6691
x1 = 0.845 | 0.6757

O=S1(=O)CCCC1 + c1ccccc1
viscosity [mPa·s], [1]
Settings | 303.15 K | 313.15 K | 323.15 K
101 kPa, x1 = 0.0944 | 0.7133 | 0.6194 | 0.5441
101 kPa, x1 = 0.1855 | 0.8992 | 0.7737 | 0.6751
101 kPa, x1 = 0.2522 | 1.074 | 0.9112 | 0.7919
101 kPa, x1 = 0.2849 | 1.162 | 0.9889 | 0.8556
101 kPa, x1 = 0.3829 | 1.504 | 1.267 | 1.085
101 kPa, x1 = 0.4835 | 1.976 | 1.648 | 1.396
101 kPa, x1 = 0.5905 | 2.694 | 2.202 | 1.855
101 kPa, x1 = 0.6841 | 3.563 | 2.879 | 2.388
101 kPa, x1 = 0.7917 | 5.014 | 3.996 | 3.267
101 kPa, x1 = 0.8956 | 7.129 | 5.619 | 4.505
101.3 kPa, x2 = 0.1417 | 6.075 | – | 3.928
101.3 kPa, x2 = 0.2777 | 4.003 | – | 2.676
101.3 kPa, x2 = 0.3972 | 2.826 | – | 1.95
101.3 kPa, x2 = 0.5062 | 2.066 | – | 1.468
101.3 kPa, x2 = 0.6063 | 1.571 | – | 1.137
101.3 kPa, x2 = 0.6976 | 1.2 | – | 0.8791
101.3 kPa, x2 = 0.7823 | 0.9625 | – | 0.717
101.3 kPa, x2 = 0.8602 | 0.786 | – | 0.5933
101.3 kPa, x2 = 0.9327 | 0.652 | – | 0.5029

Cc1ccc(O)cc1 + c1ccncc1
viscosity [mPa·s], [1], 101 kPa
Settings | x1 = 0.163 | x1 = 0.2353 | x1 = 0.3282 | x1 = 0.3907 | x1 = 0.4666 | x1 = 0.527 | x1 = 0.6065 | x1 = 0.6911 | x1 = 0.7846 | x1 = 0.881
293.15 K | 1.451 | 1.808 | 2.535 | 3.105 | 4.215 | 5.315 | 7.365 | 10.04 | 13.24 | 16.16
303.15 K | 1.363 | 1.628 | 2.115 | 2.565 | 3.31 | 4.08 | 5.265 | 6.635 | 7.97 | 9.26
313.15 K | 1.139 | 1.37 | 1.727 | 2.065 | 2.6 | 3.115 | 3.83 | 4.66 | 5.415 | 6.02
